Experimental data published in patent US20090124640A1, “Pyrrolo[3,2-D]Pyrimidin-4-One Derivative as Myeloperoxidase Inhibitor” (ASTRAZENECA AB, priority 2006, published 2009).

Biological target: T1, human MPO (Homo sapiens, UniProt P05164)
T1 sequence (P05164 49-745): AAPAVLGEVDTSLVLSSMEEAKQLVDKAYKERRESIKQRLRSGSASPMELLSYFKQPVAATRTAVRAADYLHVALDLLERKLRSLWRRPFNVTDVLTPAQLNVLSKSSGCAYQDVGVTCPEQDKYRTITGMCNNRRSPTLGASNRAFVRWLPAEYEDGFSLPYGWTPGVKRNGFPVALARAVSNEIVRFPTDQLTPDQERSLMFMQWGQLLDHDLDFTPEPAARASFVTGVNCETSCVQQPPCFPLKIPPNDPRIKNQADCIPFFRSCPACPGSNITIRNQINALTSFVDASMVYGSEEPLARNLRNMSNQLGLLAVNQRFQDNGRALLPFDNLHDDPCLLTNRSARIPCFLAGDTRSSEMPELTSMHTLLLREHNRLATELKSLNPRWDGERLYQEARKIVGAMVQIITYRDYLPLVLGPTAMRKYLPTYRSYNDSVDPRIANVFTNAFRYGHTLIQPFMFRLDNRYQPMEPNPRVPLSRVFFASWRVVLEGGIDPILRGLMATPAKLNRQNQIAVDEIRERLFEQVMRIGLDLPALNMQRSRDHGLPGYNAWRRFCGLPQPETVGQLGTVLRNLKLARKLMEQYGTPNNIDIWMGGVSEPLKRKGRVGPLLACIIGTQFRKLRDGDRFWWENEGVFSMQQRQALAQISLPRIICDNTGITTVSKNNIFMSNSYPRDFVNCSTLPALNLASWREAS
Assay: MPO inhibition screen (TMB oxidation, absorbance)
Type: biochemical
Settings: at least one version of the screen (compound alone or with added tyrosine, 8 μM final); human MPO 2.5 nM, H2O2 100 μM, pH 6.5
Description: Methods for the determination of MPO inhibitory activity are disclosed in patent application WO 02/090575. The pharmacological activity of compounds according to the invention was tested in the following screen in which the compound was either tested alone or in the presence of added tyrosine:
Assay buffer: 20 mM sodium/potassium phosphate buffer pH 6.5 containing 10 mM taurine and 100 mM NaCl.
Developing reagent: 2 mM 3,3′,5,5′-tetramethylbenzidine (TMB), 200 μM KI, 200 mM acetate buffer pH 5.4 with 20% DMF.
To 10 μl of diluted compounds in assay buffer, 40 μL of human MPO (final concentration 2.5 nM), with or without 20 μM tyrosine (final concentration, if present, 8 μM), was added and the mixture was incubated for 10 minutes at ambient temperature. Then 50 μl of H2O2 (final concentration 100 μM), or assay buffer alone as a control, were added. After incubation for 10 minutes at ambient temperature, the reaction was stopped by adding 10 μl 0.2 mg/ml of catalase (final concentration 18 μg/ml). The reaction mixture was left for an additional 5 minutes before 100 μl of TMB developing reagent was added. The amount of oxidised 3,3′,5,5′-tetramethylbenzidine formed was then measured after about 5 minutes using absorbance spectroscopy at about […]. IC50 values were then determined using standard procedures.

IC50: < 5 µM
Compound: O=c1[nH]c(=S)n(CCO)c2cc[nH]c12 [Example 1, 1-(2-Hydroxyethyl)-2-thioxo-1,2,3,5-tetrahydro-4H-pyrrolo[3,2-d]pyrimidin-4-one]
